Laboratory results as given in US20210355086A1, “PROCESS FOR PREPARING A NOVEL PHENICOL ANTIBACTERIAL AGENT” (Zoetis Services LLC, priority 2018, published 2021).

Key:
[1] = test system: M. haemolytica (strain 34195); experiment: M. haemolytica trans-tracheal challenge study in Holstein/Holstein cross cattle; conditions: for back transform LSmean percent lung lesions / mortality: end of study (6 days)
[2] = test system: naturally occurring BRD infection; experiment: Naturally occurring BRD infection treatment study in cattle; type: in vivo, cattle (mixed beef and/or dairy breeds); conditions: for treatment success based on respiratory symptoms and attitude: control about 20%
Method: In a second study, cattle (mixed beef and/or dairy breeds; 180-270 kg) were treated from a naturally occurring BRD infection. Animals (n=40/group) received a single subcutaneous dose of saline (control) or test (15 mg/kg or 20 mg/kg) compound. Overall, treatment success, based on respiratory symptoms (rate, mucopurulent nasal or ocular discharge, open mouth breathing) and attitude (alert, stimuli response time, muscle weakness, ataxia, swaying) was about 37% and 47% for the 15 mg/kg and 20 mg/kg dose, respectively. In contrast, control animal success was about 20%.

[3] = test system: A3579 (OSU-012103-BHI) strain of Mannheimia haemolytica; experiment: Mannheimia haemolytica trans-tracheal challenge BRD study in dairy calves; type: in vivo; conditions: for percentage of lung lesion at necropsy, upper range value: control about 45%
Method: In one study, healthy dairy calves (N=15/group; 85-140 kg) were trans-tracheally infected -2 to -1 days with the […] (OSU-012103-BHI) strain of Mannheimia haemolytica. The challenge dose ranged from about […] to 4.9×10^8 CFU. On Day 0, BRD symptomatic animals received a single subcutaneous dose of saline (control) or test (20 or 40 mg/kg) compound. At necropsy, control animals presented with an upper range of lung lesions of about 45%. […] Therefore, a single dose of the Formula (1) compound administered subcutaneously was effective for the treatment of BRD caused by M. haemolytica in dairy calves.

[4] = test system: Gram-positive bacteria and Gram-negative bacteria; conditions: background statement; cited from earlier work
[5] = T03, positive control, dose not given, subcutaneously 4-6 hours post challenge
[6] = 40 mg/kg (T02, T05) subcutaneously 4-6 hours post challenge, saline T01 35.1%
[7] = 40 mg/kg (T02, T05) subcutaneously 4-6 hours post challenge, saline T01 53.3%

Row | Structure (SMILES) | back transform LSmean percent lung lesions [1, 5] [%] | mortality [1, 5] [%] | back transform LSmean percent lung lesions [1, 6] [%] | mortality [1, 7] [%] | percent lung lesions compared with T03 (Baytril) ([1]; T04 (20 mg/kg) and T05 (40 mg/kg)) | back transform LSmean percent lung lesions ([1]; T04, 20 mg/kg subcutaneously 4-6 hours post challenge, saline T01 35.1%) [%] | mortality ([1]; T04, 20 mg/kg subcutaneously 4-6 hours post challenge, saline T01 53.3%) [%] | treatment success based on respiratory symptoms and attitude ([2]; 15 mg/kg single subcutaneous dose) | treatment success based on respiratory symptoms and attitude ([2]; 20 mg/kg single subcutaneous dose) [%] | treatment effect in cattle with natural BRD infections (conclusion) ([2]; single subcutaneous dose 15 or 20 mg/kg) | percentage of lung lesion at necropsy, upper range value ([3]; 20 mg/kg single subcutaneous dose on Day 0) | percentage of lung lesion at necropsy, upper range value ([3]; 40 mg/kg single subcutaneous dose on Day 0) [%] | treatment of BRD caused by M. haemolytica (conclusion) ([3]; single dose administered subcutaneously, dairy calves) | antibacterial activity relative to thiamphenicol [4]
1 | CCN1CCN(c2cc3c(cc2F)c(=O)c(C(=O)O)cn3C2CC2)CC1 [Baytril, enrofloxacin, reference compound] | 9.1 | 0 |  |  |  |  |  |  |  |  |  |  |  | 
2 | CS(=N)(=O)c1ccc(-c2ccc([C@@H](O)[C@@H](CF)NC(=O)C(F)F)cc2)cn1 (stereo partly drawn) [Formula (1) compound, 2,2-difluoro-N-((1R,2S)-3-fluoro-1-hydroxy-1-(4-(6-(S-methylsulfonimidoyl)pyridin-3-yl)phenyl)propan-2-yl)acetamide] |  |  | 6.8 | 0 | not different | 13.3 | 0 | about 37% | ~47 | significant treatment effect | about 12% | ~8 | effective | 
3 | CS(=O)(=O)c1ccc([C@@H](O)[C@@H](CF)NC(=O)C(Cl)Cl)cc1 [Nuflor, florfenicol, reference compound] |  |  | 32.1 | 46.7 |  |  |  |  |  |  |  |  |  | up to 10 times
